Experiment: xn = mol fraction of the nth substance listed
Details: for viscosity / speed of sound / mass density: 100 kPa, Liquid; for viscosity: Capillary tube (Ostwald / Ubbelohde) method; for speed of sound: Sing-around technique in a fixed-path interferometer; for mass density: Vibrating tube method; for surface tension liquid-gas: Capillary rise

CCCC[N+]1(C)CCCC1.N#CN=C=[N-] [1-butyl-1-methylpyrrolidinium dicyanamide] + O
Details	mass density [kg/m3]	speed of sound [m/s]	surface tension liquid-gas [mN/m]	viscosity [mPa·s]
287.92 K, x2 = 0.0329	–	–	–	46.3
287.92 K, x2 = 0.0994	–	–	–	44.7
287.94 K, x2 = 0.2615	–	–	–	37.1
287.94 K, x2 = 0.4463	–	–	–	28.9
287.95 K, x2 = 0.6509	–	–	–	19.6
287.95 K, x2 = 0.751	–	–	–	14.4
287.97 K, x2 = 0.9	–	–	–	5.51
288.15 K, x2 = 0	1019.11	1834.4	–	–
288.15 K, x2 = 0.0329	1019.02	1834.2	–	–
288.15 K, x2 = 0.0993	1018.74	1833.5	–	–
288.15 K, x2 = 0.2615	1018.26	1832.2	–	–
288.15 K, x2 = 0.4463	1017.61	1832.1	–	–
288.15 K, x2 = 0.6509	1016.78	1831.3	–	–
288.15 K, x2 = 0.751	1016.44	1825	–	–
288.15 K, x2 = 0.9	1012.13	1752.9	–	–
288.3 K, x2 = 0.0329	–	–	51.9	–
288.8 K, x2 = 0.0994	–	–	52.4	–
288.8 K, x2 = 0.751	–	–	54.3	–
288.8 K, x2 = 0.9	–	–	54.3	–
288.9 K, x2 = 0.6509	–	–	50.6	–
289 K, x2 = 0.4463	–	–	51.8	–
289.1 K, x2 = 0.2615	–	–	52	–
297.5 K, x2 = 0.0329	–	–	51.4	–
297.6 K, x2 = 0.9	–	–	53.7	–
297.7 K, x2 = 0.4463	–	–	51.5	–
297.8 K, x2 = 0.0994	–	–	52	–
297.8 K, x2 = 0.751	–	–	53.3	–
297.9 K, x2 = 0.2615	–	–	51.6	–
297.9 K, x2 = 0.6509	–	–	50.1	–
297.93 K, x2 = 0.0329	–	–	–	31.9
297.93 K, x2 = 0.4463	–	–	–	20
297.94 K, x2 = 0.2615	–	–	–	26.1
297.95 K, x2 = 0.0994	–	–	–	31.1
297.95 K, x2 = 0.751	–	–	–	10
297.96 K, x2 = 0.6509	–	–	–	13.4
297.96 K, x2 = 0.9	–	–	–	3.93
298.15 K, x2 = 0	1013.48	1809.6	–	–
298.15 K, x2 = 0.0329	1013.44	1809.6	–	–
298.15 K, x2 = 0.0993	1013.07	1808.5	–	–
298.15 K, x2 = 0.2615	1012.53	1807.6	–	–
298.15 K, x2 = 0.4463	1011.78	1808.1	–	–
298.15 K, x2 = 0.6509	1010.69	1808.3	–	–
298.15 K, x2 = 0.751	1010.21	1803.2	–	–
298.15 K, x2 = 0.9	1006.14	1740.1	–	–
305.2 K, x2 = 0.2615	–	–	51	–
305.5 K, x2 = 0.0994	–	–	51.7	–
305.5 K, x2 = 0.751	–	–	52.6	–
305.6 K, x2 = 0.4463	–	–	51	–
305.6 K, x2 = 0.9	–	–	52.9	–
306 K, x2 = 0.0329	–	–	50.8	–
306 K, x2 = 0.6509	–	–	49.8	–
307.99 K, x2 = 0.4463	–	–	–	14.6
308 K, x2 = 0.0329	–	–	–	23.1
308.01 K, x2 = 0.0994	–	–	–	22.5
308.02 K, x2 = 0.751	–	–	–	7.24
308.02 K, x2 = 0.9	–	–	–	2.98
308.03 K, x2 = 0.2615	–	–	–	19
308.03 K, x2 = 0.6509	–	–	–	9.74
308.15 K, x2 = 0	1007.82	1785.2	–	–
308.15 K, x2 = 0.0329	1007.7	1785.2	–	–
308.15 K, x2 = 0.0993	1007.45	1784.4	–	–
308.15 K, x2 = 0.2615	1006.85	1783.8	–	–
308.15 K, x2 = 0.4463	1005.97	1784.8	–	–
308.15 K, x2 = 0.6509	1004.63	1785.9	–	–
308.15 K, x2 = 0.751	1003.96	1781.8	–	–
308.15 K, x2 = 0.9	999.99	1726.6	–	–
312.9 K, x2 = 0.2615	–	–	50.6	–
313.2 K, x2 = 0.751	–	–	52	–
313.5 K, x2 = 0.4463	–	–	50.4	–
313.8 K, x2 = 0.0994	–	–	51.1	–
313.8 K, x2 = 0.6509	–	–	49.3	–
313.9 K, x2 = 0.0329	–	–	50.3	–
316.2 K, x2 = 0.9	–	–	52.2	–
318.02 K, x2 = 0.0329	–	–	–	17.4
318.03 K, x2 = 0.4463	–	–	–	11
318.04 K, x2 = 0.751	–	–	–	5.47
318.05 K, x2 = 0.2615	–	–	–	14.4
318.05 K, x2 = 0.9	–	–	–	2.33
318.06 K, x2 = 0.0994	–	–	–	16.9
318.06 K, x2 = 0.6509	–	–	–	7.37
318.15 K, x2 = 0	1002.33	1761	–	–
318.15 K, x2 = 0.0329	1002.21	1760.7	–	–
318.15 K, x2 = 0.0993	1001.88	1760	–	–
318.15 K, x2 = 0.2615	1001.22	1759.7	–	–
318.15 K, x2 = 0.4463	1000.21	1761.1	–	–
318.15 K, x2 = 0.6509	998.57	1762.5	–	–
318.15 K, x2 = 0.751	997.71	1759.7	–	–
318.15 K, x2 = 0.9	993.7	1711.2	–	–
323.9 K, x2 = 0.0994	–	–	50.3	–
324.1 K, x2 = 0.2615	–	–	49.6	–
324.2 K, x2 = 0.751	–	–	51.1	–
324.4 K, x2 = 0.9	–	–	51.7	–
324.5 K, x2 = 0.4463	–	–	49.6	–
324.6 K, x2 = 0.6509	–	–	48.9	–
324.9 K, x2 = 0.0329	–	–	49.5	–
333.04 K, x2 = 0.0329	–	–	–	12.1
333.07 K, x2 = 0.4463	–	–	–	7.72
333.07 K, x2 = 0.751	–	–	–	3.81
333.07 K, x2 = 0.9	–	–	–	1.68
333.08 K, x2 = 0.2615	–	–	–	10.1
333.09 K, x2 = 0.6509	–	–	–	5.14
333.1 K, x2 = 0.0994	–	–	–	11.7
333.15 K, x2 = 0	994.14	1724.7	–	–
333.15 K, x2 = 0.0329	993.99	1724.4	–	–
333.15 K, x2 = 0.0993	993.64	1723.9	–	–
333.15 K, x2 = 0.2615	992.88	1724	–	–
333.15 K, x2 = 0.4463	991.65	1725.6	–	–
333.15 K, x2 = 0.6509	989.51	1727	–	–
333.15 K, x2 = 0.751	988.31	1724.7	–	–
333.15 K, x2 = 0.9	983.98	1684.9	–	–
